Legend:
[1] = test system: β-catenin/Tcf-4; assay: cells; format: cell-based; details: Homo sapiens, 24 hours of incubation with compound, ratio Firefly/Renilla luciferase
In short: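 SW480-derived lines with integrated reporters (Tcf-4-driven firefly luciferase; SV40 firefly as specificity control; SV40 Renilla for cell number/toxicity), treated 24 hours with titrated compounds, final 0.316% DMSO. Dual-luciferase read-out; firefly/Renilla ratio as % of control, duplicate plates, IC50 (nM) from curve fit.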

[2] = test system: SV40-Luc; assay: SV40-Luc control luciferase reporter assay, SV 5A8 cell line (SV40-Luc and SV40-R-Luc), control for non-specific inhibitors; format: cell-based, human; details: Homo sapiens, SV5A8, 24 h, SV 5A8 cells derived from SW480; 24 hours of incubation with compound; ratio Firefly/Renilla luciferase
In short: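 Cells were plated and, 20-24 hours later, treated with titrated compound (0.316% DMSO final). After 24 hours they were lysed or given Dual-Glo reagent, and firefly then Renilla luminescence was measured. IC50s came from firefly/Renilla ratios as % of control.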

[3] = SW480, 24 h, Tcf 33.13 cells derived from SW480
[4] = Tcf22C11, 24 h, Tcf 22C11 cells derived from SW480

Row | IC50 [1, 3] [nM] | IC50 [1, 4] [nM] | IC50 [2] [nM] | melting point [°C] | SMILES
1 | 1070 | 1720 | > 2490 | 96 | CC(C)(C)OC(=O)CNc1nc(NCc2ccc(NC(=O)c3ccc(F)cc3)cc2)c2ccccc2n1 [Example 126, tert-butyl N-[4-({4-[(4-fluorobenzoyl)amino]benzyl}amino)quinazolin-2-yl]glycinate]
2 | > 2180 | > 4350 | > 4350 | 135 to 138 | Cc1ccc2c(NCc3ccc(NC(=O)c4ccc(F)cc4)cc3)nc(NC3CCN(Cc4ccccc4)CC3)nc2c1 [Example 233, N-{4-[({2-[(1-benzylpiperidin-4-yl)amino]-7-methylquinazolin-4-yl}amino)methyl]phenyl}-4-fluorobenzamide]
3 | 587 | 870 | > 5850 | 249 | O=C(Nc1ccc(CNc2nc(N3CCC3)nc3ccccc23)cc1)c1ccc(F)cc1 [Example 114, N-(4-{[(2-azetidin-1-ylquinazolin-4-yl)amino]methyl}phenyl)-4-fluorobenzamide]
4 | 966 | 1040 | > 7870 | 66 | Cc1ccc2c(NCc3ccc(NC(=O)C4CCN(Cc5ccccc5)CC4)cc3)nc(N3CCCCCC3)nc2c1 [Example 131, N-(4-{[(2-azepan-1-yl-7-methylquinazolin-4-yl)amino]methyl}phenyl)-1-benzylpiperidine-4-carboxamide]

Reference: US20090004185A1, “AMINO-SUBSTITUTED QUINAZOLINE DERIVATIVES AS INHIBITORS OF BETA-CATENIN/TCF-4 PATHWAY AND CANCER TREATMENT AGENTS” (WYETH, priority 2007, published 2009)
